Assay results reported in paper PMC3749181, “Rapid Identification of Antifungal Compounds against Exserohilum rostratum Using High Throughput Drug Repurposing Screens” (PLoS ONE, 2013).
Where two headings read alike, the source gives them in different places.

What was measured:
SH-SY5Y cells = assay: SH-SY5Y cytotoxicity counter-screen (ATP content assay); type: cell-based, Human; settings: for SH-SY5Y % Max. Resp.: Table 2, SH-SY5Y, inact. = no significant activity at 46 µM; for SH-SY5Y % M. Res.: Inact. = no significant activity at 46 µM
Method: Human neuroblastoma SH-SY5Y cell line (Catalog No. CRL-2266) was purchased from ATCC (Manassas, VA). SH-SY5Y cell line was cultured in 175-cm^2 tissue culture flasks (Costar, Cambridge, MA) with 30 ml of growth medium at 37°C in a 5% CO2 humidified atmosphere. Growth medium was made with Dulbecco's Modified Eagle Medium: Nutrient Mixture F-12 with 10% fetal bovine serum (FBS). Growth medium was replaced every other day and cells were passed at 75% confluence.
(§1) The ATPLite assay kit, consisting of luciferase/luciferin and detergent, was used to quantitate cellular ATP levels as a marker for cell viability (Table 1). For assay development, hyphal fragments or conidia in PBS were plated in a seeding density of 3,750, 7,500 and 15,000 cellular particles/well with a final volume of 5 µl/well using the Multidrop-Combi dispenser in white 1536-well plates. Conidia or hyphae fragments were incubated for 24 h at 37°C in a 5% CO2 humidified atmosphere. ATPLite detection reagents were added at 4 µl/well. The assay plates were incubated at room temperature for 15 minutes before reading luminescence intensity on a ViewLux plate reader (Perkin Elmer, Waltham, MA). Conidia suspended in RPMI medium were inoculated at concentrations of 62.5, 125 and 250 conidia/well with a final volume of 5 µl/well in white 1536-well plates. The conidia assay was developed and optimized in the same way as the hyphal assay.
Two small known compound libraries including the LOPAC (1280 compounds) and approved drugs (4096 compounds) were screened in parallel using the above optimized assays for hyphae and conidia in 1536-well plates (Fig. 4). […] A mammalian SH-SY5Y cell line was used in parallel as a counter-screen with the same ATP content assay kit to assess the specificity of these compounds for E. rostratum.

[1] = test system: E. rostratum hyphal fragments; assay: hyphal fragment fungicidal ATP content assay (PBS, 1536-well); type: cell-based, Exserohilum rostratum; settings: for Emax / Hyphae % Max. Resp. / Hyphae % M. Res.: 46 µM Amphotericin B = 100%; for IC50: read-out: Hyphae IC50
Method: (§2) Conidia and hyphae of E. rostratum were obtained as described by Richard et al., with the following modifications. Briefly, conidia were harvested from Potato Dextrose Agar (PDA) cultured media with 0.05% Tween 80, and the conidial suspension was filtered using a Cell Strainer (100 µm, BD Falcon REF 352340). After centrifugation at 700g for 10 min, the suspension was decanted and conidia were resuspended at 1×10^5 per ml in RPMI and counted in a hemocytometer. Hyphae were harvested from yeast extract peptone dextrose (YPD) culture media with 0.05% Tween 80. Hyphal fragments were sized by vortexing 15 sec twice with 0.4 mm glassbeads, and the hyphae suspension was filtered by cheese cloth twice. […] To normalize concentrations of hyphal fragments for batch to batch consistency, carbohydrate analysis was performed by a phenol-sulfuric acid method as previously described. The final stock concentration of hyphae was adjusted to 1.0 (OD490) per 100 µl.
as §1
(§3) The LOPAC library (Sigma-Aldrich) has been extensively used for HTS assay validations, [18]. The NIH Chemical Genomics Center Pharmaceutical (NPC) collection was constructed in-house through a combined effort of compound purchasing and custom synthesis and recently expanded to 4096 compounds. […] 2.5 µl/well PBS was dispensed into 1536-well plates using a Multidrop-Combi dispenser. Compound in DMSO solution was transferred in a volume of 23 nl/well using a NX-TR pintool station (WAKO Scientific Solutions, San Diego, CA). This additional PBS step for compound addition was designed to prevent the potential fungal contamination of compound libraries. The hyphal fragments in PBS were then added at 2.5 µl/well for a final seeding density of 15,000 hyphal fragments/well using the Multidrop-Combi dispenser. The final compound concentration was 46 µM in the primary screen. The assay plates were incubated for 24 h at 30°C before the detection of cellular viability with the ATP content assay. Screen of conidia was performed in a similar way except that PBS was replaced with RPMI medium and conidia were plated for a final seeding density of 250 conidia/well.
(§4) The primary screen data and curve fitting were analyzed using software developed internally at the NIH Chemical Genomics Center (NCGC). Total signals for cellular viability (100% cellular viability) were calculated from the wells with DMSO solvent and the complete cell killing (0% cellular viability) was calculated from 46 µM amphotericin B treated wells. […] All values were expressed as the mean +/− SD (n≥3).

E. rostratum conidia = assay: conidia growth inhibition ATP content assay (RPMI, 1536-well); type: cell-based, Exserohilum rostratum; settings: for IC50: read-out: Conidia IC50
Method: as §2, §1, §3, §4

[2] = Exserohilum rostratum, Table 2, inact. = no significant activity in the primary screen, read-out: Hyphae % Max. Resp.
[3] = Exserohilum rostratum, Table 2, 24 h, inact. = no significant activity in the primary screen
[4] = Exserohilum rostratum, 24 h, Table 2, 24 h, inact. = no significant activity at the highest compound concentration (46 µM)
[5] = Exserohilum rostratum, Table 2, 46 µM Amphotericin B = 100%, inact. = no significant activity at 46 µM, read-out: Conidia % Max. Resp.
[6] = Table 2, inact. = no significant activity in the primary screen
[7] = Table 2, 24 h, inact. = no significant activity in the primary screen
[8] = Table S1, 46 µM Amphotericin B = 100%
[9] = Table S1, Inact. = no significant activity at the highest compound concentration (46 µM)
[10] = Exserohilum rostratum, Table S1, Inact. = no significant activity in the primary screen, read-out: Hyphae % M. Res.
[11] = Exserohilum rostratum, Table S1, 46 µM Amphotericin B = 100%, Inact. = no significant activity at 46 µM, read-out: Conidia % M. Res.
[12] = Exserohilum rostratum, Table S1, Inact. = no significant activity in the primary screen
[13] = Table S1, 46 µM Amphotericin B = 100%, Inact. = no significant activity at 46 µM
[14] = Table S1, Inact. = no significant activity in the primary screen

| Compound | SH-SY5Y % Max. Resp. (SH-SY5Y cells; 46 µM Amphotericin B = 100%) | SH-SY5Y % Max. Resp. (SH-SY5Y cells) | Emax [1, 2] | IC50 [1, 3] | IC50 (E. rostratum conidia; [4]) | Emax (E. rostratum conidia; [5]) | Hyphae % Max. Resp. [1, 6] | SH-SY5Y % M. Res. (SH-SY5Y cells; [8]) | SH-SY5Y IC50 (SH-SY5Y cells; [9]) | Conidia % M. Res. (E. rostratum conidia; [13]) | other results |
| --- | --- | --- | --- | --- | --- | --- | --- | --- | --- | --- | --- |
| Cc1cc(N)c2ccccc2[n+]1CCCCCCCCCC[n+]1c(C)cc(N)c2ccccc21 [Dequalinium dichloride] | inact. | inact. | 93% | 0.673 µM | 2.54 µM | 109% |  |  |  |  |  |
| Oc1c(Br)cc(Br)c2cccnc12 [Broxyquinoline] | 100% | 58.9% | 96% | 4.51 µM | 1.6 µM | 98% |  |  |  |  |  |
| CNc1ccc2oc(C[C@H]3O[C@@]4(CC[C@H]3C)O[C@H]([C@H](C)C(=O)c3ccc[nH]3)[C@H](C)C[C@H]4C)nc2c1C(=O)O [Calcimycin] | 94% | 3.95% |  |  |  | 51% | inact. |  |  |  | Hyphae IC50 [1, 7]: inact.; IC50 (E. rostratum conidia; Exserohilum rostratum, 24 h): 0.735 µM |
| Oc1c(Cl)cc(Cl)c(Cl)c1Cc1c(O)c(Cl)cc(Cl)c1Cl [Hexachlorophene] | inact. | inact. |  |  |  |  | inact. |  |  |  | Hyphae IC50 [1, 7]: inact.; IC50 (E. rostratum conidia; Exserohilum rostratum, 24 h): 3.97 µM; Emax (E. rostratum conidia; Exserohilum rostratum, read-out: Conidia % Max. Resp.): 109% |
| CC1(C)CCC(=Cc2ccc(Cl)cc2)C1(O)Cn1cncn1 (stereo not drawn) [Triticonazole] | inact. | inact. | 74% | 5.82 µM | 6.95 µM | 100% |  | Inact. | Inact. |  | Emax [1, 10]: 74%; Emax (E. rostratum conidia; [11]): 100% |
| C[C@@H]1C/C=C/C=C/C=C/C=C/[C@H](O[C@@H]2O[C@H](C)[C@@H](O)[C@H](N)[C@@H]2O)C[C@@H]2O[C@](O)(C[C@@H](O)C[C@H]3O[C@@H]3/C=C/C(=O)O1)C[C@H](O)[C@H]2C(=O)O [Natamycin] |  |  |  |  |  |  |  | Inact. | Inact. | Inact. | Emax [1, 10]: 66%; IC50 [1, 12]: 46.9 µM; Conidia IC50 (E. rostratum conidia; [9]): Inact. |
| CC(C)N1CCN(c2ccc(OCC3COC(Cn4cncn4)(c4ccc(Cl)cc4Cl)O3)cc2)CC1 (stereo not drawn) [Terconazole] | inact. | inact. | 100% | 6.12 µM | 9.06 µM | 101% |  | Inact. | Inact. |  | Emax [1, 10]: 100%; Emax (E. rostratum conidia; [11]): 101% |
| OC(Cn1cncn1)(Cn1cncn1)c1ccc(F)cc1F [Fluconazole] |  |  |  |  |  |  |  | Inact. | Inact. | Inact. | Hyphae % M. Res. [1, 14]: Inact.; Hyphae IC50 [1, 14]: Inact.; activity in the hyphae assay ([1]; concentrations up to 46 µM): no activity; Conidia IC50 (E. rostratum conidia; [9]): Inact.; activity in the conidia assay (E. rostratum conidia; concentrations up to 46 µM): no activity |
| COCc1c(C(C)C)nc(C(C)C)c(/C=C/[C@@H](O)C[C@@H](O)CC(=O)O)c1-c1ccc(F)cc1 [Cerivastatin sodium] | inact. | inact. | 79% | 1.61 µM | 0.472 µM | 101% |  |  |  |  |  |
| Mepartricin |  |  |  |  |  |  |  | 38% |  | 80% | IC50 (SH-SY5Y cells): 37.2 µM; Hyphae % M. Res. [1, 14]: Inact.; Hyphae IC50 [1, 14]: Inact. |
| CC(C)(C)c1cc(C=C(C#N)C#N)cc(C(C)(C)C)c1O [Tyrphostin A9] | 61% | 18.6% |  |  | 1.98 µM | 100% | inact. |  |  |  | Hyphae IC50 [1, 7]: inact. |
| Cc1ccc(/C=N/n2c(-c3ccccc3)csc2=S)cc1 [Fezatione] |  |  |  |  |  |  |  | Inact. | Inact. | Inact. | Hyphae % M. Res. [1, 14]: Inact.; Hyphae IC50 [1, 14]: Inact.; Conidia IC50 (E. rostratum conidia; [9]): Inact. |
| CCCCCCCCCC(=O)NO [Decanohydroxamic acid] |  |  |  |  |  |  |  | Inact. | Inact. | Inact. | Hyphae % M. Res. [1, 14]: Inact.; Hyphae IC50 [1, 14]: Inact.; Conidia IC50 (E. rostratum conidia; [9]): Inact. |
| Oc1c(Cl)cc(Cl)cc1Sc1cc(Cl)cc(Cl)c1O [Bithionol] | inact. | inact. |  |  | 1.87 µM | 100% | inact. |  |  |  | Hyphae IC50 [1, 7]: inact. |
| Clc1ccc(C2(Cn3cncn3)OCCO2)c(Cl)c1 [Azaconazole] |  |  |  |  |  |  |  | Inact. |  | Inact. | SH-SY5Y IC50 (SH-SY5Y cells): Inact.; Emax [1, 10]: 64%; IC50 [1, 12]: 46.9 µM; Conidia IC50 (E. rostratum conidia): Inact. |
| O=[N+]([O-])c1c(Cl)cccc1-c1c[nH]cc1Cl [Pyrrolnitrin] | inact. | inact. | 80% | 5.59 µM | 0.409 µM | 101% |  |  |  |  |  |
| O=C1[O][Pt]2([NH][C@@H]3CCCC[C@H]3[NH]2)[O]C1=O [Oxaliplatin] | inact. | inact. |  |  |  |  | 76% |  |  |  | IC50 [1, 7]: 0.935 µM; Conidia % Max. Resp. (E. rostratum conidia; Table 2, 46 µM Amphotericin B = 100%, inact. = no significant activity at 46 µM): 95%; IC50 (E. rostratum conidia): 4.95 µM |
| Cc1cc(O)c2c(c1)O[C@@]1(C)CC[C@H]3C(C)(C)CCC[C@]34CO[C@@H]2[C@H]41 [Siccanin] |  |  |  |  |  |  |  | Inact. | Inact. | Inact. | Hyphae % M. Res. [1, 14]: Inact.; Hyphae IC50 [1, 14]: Inact.; Conidia IC50 (E. rostratum conidia; [9]): Inact. |
| CCC(C)(C)c1ccc(CC(C)CN2C[C@@H](C)O[C@@H](C)C2)cc1 (stereo partly drawn) [Amorolfine] | inact. | inact. | 81% | 4.51 µM | 7.86 µM | 102% |  |  |  |  |  |
| CCCCCCCCCCCCCC[N+](C)(C)C [Tetradonium bromide] | inact. | inact. |  |  | 2.44 µM | 103% | inact. |  |  |  | Hyphae IC50 [1, 7]: inact. |
